US10420341B2, “Herbicidal phenylpyrimidines” (BASF SE, priority 2015, dated 2019)

Key:
[1] = test system: ECHCG; assay: greenhouse post-emergence herbicidal test; format: in vivo, Echinocloa crus-galli; conditions: post-emergence method, scale from 0 to 100
Summary of the method: (§1)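 Plants grown to 3 to 15 cm, then sprayed with active ingredient suspended or emulsified in water; kept at 10-25° C. or 20-35° C. by species. Damage scored after 2 to 4 weeks on a 0 to 100 scale, 100 meaning no emergence or complete aerial destruction, 0 normal growth.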

[2] = test system: ECHCG; assay: greenhouse pre-emergence herbicidal test; format: in vivo, Echinocloa crus-galli; conditions: pre-emergence method, scale from 0 to 100
Summary of the method: (§2)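 Rated on a 0 (normal growth) to 100 (no emergence/total aerial kill) scale over a 2-4 week test period. Aqueous suspensions or emulsions applied by fine nozzles right after sowing, then plants held under hoods at 10-25 °C or 20-35 °C depending on species.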

[3] = test system: AMARE; assay: greenhouse post-emergence herbicidal test; format: in vivo, Amaranthus retroflexus; conditions: post-emergence method, scale from 0 to 100
Source text: (§3) The seeds of the test plants were sown separately for each species. For the post-emergence treatment, the test plants were first grown to a height of 3 to 15 cm, depending on the plant habit, and only then treated with the active ingredients which had been suspended or emulsified in water. For this purpose, the test plants were either sown directly and grown in the same containers, or they were first grown separately as seedlings and transplanted into the test containers a few days prior to treatment. Depending on the species, the plants were kept at 10-25° C. or 20-35° C., respectively. The test period extended over 2 to 4 weeks. During this time, the plants were tended, and their response to the individual treatments was evaluated. Evaluation was carried out using a scale from 0 to 100. 100 means no emergence of the plants, or complete destruction of at least the aerial moieties, and 0 means no damage, or normal course of growth. […] The plants used in the greenhouse experiments were of the following species: [table]

[4] = test system: APESV; assay: greenhouse pre-emergence herbicidal test; format: in vivo, Apera spica-venti; conditions: pre-emergence method, scale from 0 to 100
Summary of the method: as §2

[5] = test system: ALOMY; assay: greenhouse post-emergence herbicidal test; format: in vivo, Alopercurus myosuroides; conditions: post-emergence method, scale from 0 to 100
Summary of the method: as §1

[6] = test system: POLCO; assay: greenhouse post-emergence herbicidal test; format: in vivo, Polygonum convolvulus; conditions: post-emergence method, application rate 500 g/ha, scale from 0 to 100
Source text: as §3

[7] = test system: AVEFA; assay: greenhouse post-emergence herbicidal test; format: in vivo, Avena fatua; conditions: post-emergence method, application rate 500 g/ha, scale from 0 to 100
Source text: as §3

Q: What does the source list for `CCc1ccccc1-c1cnc(C2CC2)nc1C(=O)O` [example 174]?
A: herbicidal activity against ECHCG ([1]; application rate 500 g/ha): very good (a very good herbicidal activity is given at values of at least 85); herbicidal activity against ECHCG ([2]; application rate 500 g/ha): very good (a very good herbicidal activity is given at values of at least 85); herbicidal activity against AMARE ([3]; application rate 500 g/ha): very good (a very good herbicidal activity is given at values of at least 85); herbicidal activity against APESV ([4]; application rate 500 g/ha): very good (a very good herbicidal activity is given at values of at least 85)

Q: With `CSc1ncc(-c2cccc(C)c2C)c(C(=O)O)n1` [example 102] as the compound, how does the “herbicidal activity against AMARE” value ([3]; application rate 2000 g/ha) read?
A: Its value is “very good (a very good herbicidal activity is given at values of at least 85)”.

Q: Which “herbicidal activity against ECHCG” value ([1]; application rate 2000 g/ha) does the source give for `CSc1ncc(-c2ccccc2C(C)C)c(C(=O)O)n1` [example 103] here?
A: Its value is “very good (a very good herbicidal activity is given at values of at least 85)”.

Q: And the “herbicidal activity against ECHCG” value ([2]; application rate 2000 g/ha)?
A: Its value is “good (A good herbicidal activity is given at values of at least 70)”.

Q: And the “herbicidal activity against AMARE” value ([3]; application rate 2000 g/ha)?
A: The value was “very good (a very good herbicidal activity is given at values of at least 85)”.

Q: Which results are given for `COC(=O)c1nc(C2CC2)ncc1-c1cccc(Cl)c1Cl` [example 211]?
A: herbicidal activity against AMARE ([3]; application rate 1000 g/ha): very good (a very good herbicidal activity is given at values of at least 85); herbicidal activity against ALOMY ([5]; application rate 1000 g/ha): very good (a very good herbicidal activity is given at values of at least 85)

Q: `COc1ccc(C(F)(F)F)cc1-c1cnc(SC)nc1C(=O)O` [example 107] was tested. Which “herbicidal activity against AMARE” value ([3]; application rate 2000 g/ha) did it give?
A: The value was “very good (a very good herbicidal activity is given at values of at least 85)”.

Q: Which results are given for `COC(=O)c1nc(C2CC2)ncc1-c1ccccc1OC(F)F` [example 242]?
A: herbicidal activity against ECHCG ([1]; application rate 500 g/ha): good (A good herbicidal activity is given at values of at least 70); herbicidal activity against ECHCG ([2]; application rate 500 g/ha): very good (a very good herbicidal activity is given at values of at least 85); herbicidal activity against AMARE ([3]; application rate 500 g/ha): very good (a very good herbicidal activity is given at values of at least 85)

Q: With `COC(=O)CSC(=O)c1nc(C2CC2)ncc1-c1ccccc1Cl` [example 278] as the compound, how does the “herbicidal activity against ECHCG” value ([2]; application rate 500 g/ha) read?
A: Its value is “very good (a very good herbicidal activity is given at values of at least 85)”.

Q: And the “herbicidal activity against POLCO” value [6]?
A: The value was “very good (a very good herbicidal activity is given at values of at least 85)”.

Q: And the “herbicidal activity against APESV” value ([4]; application rate 500 g/ha)?
A: Its value is “very good (a very good herbicidal activity is given at values of at least 85)”.

Q: Which “herbicidal activity against ECHCG” value ([1]; application rate 500 g/ha) does the source give for `COC(=O)c1nc(C2CC2)ncc1-c1c(Br)ccc(OC)c1Cl` [example 212] here?
A: The value was “very good (a very good herbicidal activity is given at values of at least 85)”.

Q: And the “herbicidal activity against AMARE” value ([3]; application rate 500 g/ha)?
A: The value was “very good (a very good herbicidal activity is given at values of at least 85)”.

Q: For `O=C(SCc1ccccc1)c1nc(C2CC2)ncc1-c1ccccc1Cl` [example 280], which “herbicidal activity against AMARE” value ([3]; application rate 500 g/ha) is on record?
A: Its value is “very good (a very good herbicidal activity is given at values of at least 85)”.

Q: And the “herbicidal activity against APESV” value ([4]; application rate 500 g/ha)?
A: The value was “very good (a very good herbicidal activity is given at values of at least 85)”.

Q: `CCSc1ccccc1-c1cnc(SC)nc1C(=O)O` [example 113] was tested. Which “herbicidal activity against AMARE” value ([3]; application rate 2000 g/ha) did it give?
A: The value was “very good (a very good herbicidal activity is given at values of at least 85)”.

Q: How did the “herbicidal activity against ECHCG” value ([1]; application rate 2000 g/ha) turn out when `CSc1ncc(-c2ccc(C)cc2C)c(C(=O)O)n1` [example 97] was run?
A: The value was “good (A good herbicidal activity is given at values of at least 70)”.

Q: What about the “herbicidal activity against AMARE” value ([3]; application rate 2000 g/ha) of the same compound?
A: Its value is “very good (a very good herbicidal activity is given at values of at least 85)”.

Q: How did the “herbicidal activity against ECHCG” value ([2]; application rate 2000 g/ha) turn out when `COc1ccc(OC)c(-c2cnc(SC)nc2C(=O)O)c1` [example 108] was run?
A: The value was “very good (a very good herbicidal activity is given at values of at least 85)”.

Q: And the “herbicidal activity against AMARE” value ([3]; application rate 2000 g/ha)?
A: The value was “very good (a very good herbicidal activity is given at values of at least 85)”.

Q: What does the source list for `Cc1cc(-c2cnc(C3CC3)nc2C(=O)O)c(C)cc1F` [example 167]?
A: herbicidal activity against ECHCG ([1]; application rate 100 g/ha): very good (a very good herbicidal activity is given at values of at least 85); herbicidal activity against ECHCG ([2]; application rate 100 g/ha): very good (a very good herbicidal activity is given at values of at least 85); herbicidal activity against AMARE ([3]; application rate 100 g/ha): good (A good herbicidal activity is given at values of at least 70); herbicidal activity against APESV ([4]; application rate 100 g/ha): very good (a very good herbicidal activity is given at values of at least 85)

Q: How did the “herbicidal activity against ECHCG” value ([1]; application rate 500 g/ha) turn out when `Cc1ccccc1-c1cnc(OC(C)C)nc1C(=O)O` [example 72] was run?
A: Its value is “very good (a very good herbicidal activity is given at values of at least 85)”.

Q: And the “herbicidal activity against AMARE” value ([3]; application rate 500 g/ha)?
A: Its value is “very good (a very good herbicidal activity is given at values of at least 85)”.

Q: `Cc1ccccc1-c1cnc([S+](C)[O-])nc1C(=O)O` (stereo not drawn) [example 126] was tested. Which “herbicidal activity against AMARE” value ([3]; application rate 2000 g/ha) did it give?
A: Its value is “very good (a very good herbicidal activity is given at values of at least 85)”.

Q: Which “herbicidal activity against AMARE” value ([3]; application rate 1000 g/ha) does the source give for `C=Cc1ncc(-c2ccccc2Cl)c(C(=O)OC)n1` [example 292] here?
A: The value was “very good (a very good herbicidal activity is given at values of at least 85)”.

Q: What does the source list for `COC(=O)c1nc(C2CC2)ncc1-c1ccccc1I` [example 312]?
A: herbicidal activity against ECHCG ([1]; application rate 500 g/ha): very good (a very good herbicidal activity is given at values of at least 85); herbicidal activity against ECHCG ([2]; application rate 500 g/ha): very good (a very good herbicidal activity is given at values of at least 85); herbicidal activity against ALOMY ([5]; application rate 500 g/ha): very good (a very good herbicidal activity is given at values of at least 85); herbicidal activity against APESV ([4]; application rate 500 g/ha): very good (a very good herbicidal activity is given at values of at least 85); herbicidal activity against AVEFA [7]: very good (a very good herbicidal activity is given at values of at least 85)

Q: Which “herbicidal activity against ECHCG” value ([1]; application rate 2000 g/ha) does the source give for `CSc1ncc(-c2cc(C)ccc2C)c(C(=O)O)n1` [example 92] here?
A: Its value is “good (A good herbicidal activity is given at values of at least 70)”.

Q: And the “herbicidal activity against ECHCG” value ([2]; application rate 2000 g/ha)?
A: The value was “very good (a very good herbicidal activity is given at values of at least 85)”.

Q: What about the “herbicidal activity against AMARE” value ([3]; application rate 2000 g/ha) of the same compound?
A: Its value is “very good (a very good herbicidal activity is given at values of at least 85)”.

Q: And the “herbicidal activity against APESV” value ([4]; application rate 2000 g/ha)?
A: Its value is “good (A good herbicidal activity is given at values of at least 70)”.

Q: `O=C(O)c1nc(C2CC2)ncc1-c1ccccc1I` [example 311] was tested. Which “herbicidal activity against ECHCG” value ([1]; application rate 500 g/ha) did it give?
A: The value was “very good (a very good herbicidal activity is given at values of at least 85)”.

Q: And the “herbicidal activity against ECHCG” value ([2]; application rate 500 g/ha)?
A: Its value is “very good (a very good herbicidal activity is given at values of at least 85)”.

Q: And the “herbicidal activity against ALOMY” value ([5]; application rate 500 g/ha)?
A: Its value is “very good (a very good herbicidal activity is given at values of at least 85)”.

Q: And the “herbicidal activity against APESV” value ([4]; application rate 500 g/ha)?
A: Its value is “very good (a very good herbicidal activity is given at values of at least 85)”.

Q: What about the “herbicidal activity against AVEFA” value [7] of the same compound?
A: Its value is “very good (a very good herbicidal activity is given at values of at least 85)”.

Q: With `CCc1ccccc1-c1cnc(C2CC2)nc1C(=O)OC` [example 237] as the compound, how does the “herbicidal activity against ECHCG” value ([1]; application rate 1000 g/ha) read?
A: The value was “very good (a very good herbicidal activity is given at values of at least 85)”.

Q: And the “herbicidal activity against ECHCG” value ([2]; application rate 1000 g/ha)?
A: The value was “very good (a very good herbicidal activity is given at values of at least 85)”.

Q: What about the “herbicidal activity against AMARE” value ([3]; application rate 1000 g/ha) of the same compound?
A: Its value is “very good (a very good herbicidal activity is given at values of at least 85)”.

Q: Which “herbicidal activity against AMARE” value ([3]; application rate 1000 g/ha) does the source give for `COC(=O)c1nc(C2CC2(F)F)ncc1-c1ccccc1Cl` (stereo not drawn) [example 293] here?
A: Its value is “good (A good herbicidal activity is given at values of at least 70)”.

Q: How did the “herbicidal activity against AMARE” value ([3]; application rate 2000 g/ha) turn out when `CSc1ncc(-c2cc(C(F)(F)F)ccc2C)c(C(=O)O)n1` [example 93] was run?
A: Its value is “very good (a very good herbicidal activity is given at values of at least 85)”.

Q: With `COC(=O)c1nc(C2CC2)ncc1-c1ccc(OC)cc1F` [example 295] as the compound, how does the “herbicidal activity against AMARE” value ([3]; application rate 500 g/ha) read?
A: Its value is “good (A good herbicidal activity is given at values of at least 70)”.
